The text below walks through data of US8257755B2, “Metabolic syndrome-improving agent and medicine, supplement, functional food and food additive containing the same” (ARKRAY, Inc., priority 2005, dated 2012).

For this test, the target named is T1, PPARα (Homo sapiens, UniProt Q07869).
T1 construct: expressed in transfected cells; host or cells: CV-1 cells (African green monkey kidney)
T1 sequence (Q07869 1-468): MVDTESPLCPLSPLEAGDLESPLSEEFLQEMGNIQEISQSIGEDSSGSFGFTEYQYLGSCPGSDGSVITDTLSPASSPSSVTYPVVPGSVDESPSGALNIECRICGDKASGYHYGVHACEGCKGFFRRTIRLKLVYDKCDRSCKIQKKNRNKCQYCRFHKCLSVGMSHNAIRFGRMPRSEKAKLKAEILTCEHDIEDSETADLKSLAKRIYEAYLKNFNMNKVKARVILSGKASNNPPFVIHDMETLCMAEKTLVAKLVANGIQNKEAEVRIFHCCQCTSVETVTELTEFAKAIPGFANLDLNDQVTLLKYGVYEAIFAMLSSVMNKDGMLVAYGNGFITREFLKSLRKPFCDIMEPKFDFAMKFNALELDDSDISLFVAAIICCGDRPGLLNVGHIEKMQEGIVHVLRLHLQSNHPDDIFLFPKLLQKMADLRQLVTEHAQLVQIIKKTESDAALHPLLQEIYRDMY
In words: PPARα ligand activity, GAL4-hPPARα luciferase reporter assay in CV-1 cells. The test is classed as cell-based. The note with it: relative to non-treatment control (DMSO) = 100, average ± standard error. On the procedure:
CV-1 cells (cultured cells derived from kidneys of male African green monkeys) were implanted on 24-well culture plates so as to be […]/well and cultured at 37° C. in 5% CO2 for 24 hours. As a medium, DMEM (Dulbecco's Modified Eagle Medium; manufactured by GIBCO) containing 10% FBS (fetal bovine serum) and a 10 mg/mL penicillin streptomycin solution was used. Using the Lipofectamine system (trade name; manufactured by Invitrogen Corporation), pM-hPPARγ and p4×UASg-tk-luc were transfected. The above-noted pM-hPPARγ was a chimeric protein-expression plasmid binding GAL4 gene (amino acid sequence 1-147) and human PPARγ ligand-binding site gene (amino acid sequence 204-505), whereas the above-noted p4×UASg-tk-luc was a reporter plasmid containing four copies of a responsive element (UAS) of GAL 4 upstream of a luciferase gene. About 24 hours after the transfection, samples of bergamottin at respective concentrations (0.1, 1.0, 10, 50 and 100 μM) were added to the above-described media, followed by 24 hour incubation. The above-noted samples were prepared by dissolving bergamottin in dimethyl sulfoxide (DMSO). Instead of the above-noted sample, DMSO was used for non-treated control media. After the incubation, measurement was made using a Dual-Luciferase Reporter Gene Assay system (trade name; manufactured by Promega Corporation).
Similarly to the measurement group, as a control group, pM (a plasmid from which PPARγ ligand-binding site gene was removed) was used for measurement instead of pM-hPPARγ. For each sample, the ratio between average luminescence intensities of the measurement group and the control group (n=4) (measurement group/control group) was calculated, and an activity relative to the non-treatment control was determined as the PPARγ ligand activity of the sample.
The PPARα ligand activity of bergamottin was measured similarly to Example 1 except that pM-hPPARα was used instead of pM-hPPARγ and the bergamottin concentrations were set to 0.1, 1.0, 5.0, 10, 20, 50 and 80 μM.
In general terms: A reporter such as luciferase makes a cellular process visible.

With `CC(C)=CCC/C(C)=C/COc1c2ccoc2cc2oc(=O)ccc12` [Bergamottin, bergamottin], the PPARα ligand activity reads like this: (0.1 μM) 95 ± 12.9; (1.0 μM) 92 ± 8.0; (5.0 μM) 118 ± 6.1; (10 μM) 194 ± 15.0; (20 μM) 350 ± 25.5; (50 μM) 622 ± 79.6. For the setting “80 μM”, this compound gave a PPARα ligand activity of 558 ± 39.4.
